We go through 27 compounds from US20230286930A1, “N -SUBSTITUTED 4-(1,3-ARYLOXAZOLO-2-YL)PHENYL COMPOUNDS FOR THE TREATMENT AND PROPHYLAXIS OF HEPATITIS B VIRUS INFECTION” (Hoffmann-La Roche Inc., priority 2020, published 2023).

Bounds are passed on as bounds.

The nature of series [1]: PHH natural infection assay, cytotoxicity (Cell Counting Kit-8). The conditions noted are these: human. The format is cell-based. The method, then:
(§1) Detailed procedures regarding primary human hepatocyte (PHH) HBV natural infection assay are described as below. One tube of frozen PHH (10 million cells) is thawed in 37° C. water bath and then transferred to 20 mL of PHH thawing medium (Sigma, InVitroGRO HT Medium, Cat. S03319) with gently mixing. The cells were then centrifuged at […] for 5 min, the supernatant was discarded and the tube was refilled with 25 mL of PHH plating medium (Sigma, InVitroGRO CP Medium, Cat. S03317). The tube was shaken very gently to re-suspend all cells, and then 50 μL of cells were transferred to each well 384-well collagen I coated plate with appropriate liquid handling equipment, e.g. Integra VIAFLO384 or Agilent Bravo. The cells were then cultured for 24 hours in a cell incubator. For HBV infection, after PHH attachment on the culture plate, the plating medium was removed and replenished with PHH culture medium containing HBV virus. The PHH culture medium was prepared with Dulbecco's Modified Eagle Medium (DMEM)/F12 (1:1 in volume ratio) containing 10% fetal bovine serum (Gibco, Cat. 10099141), 5 ng/mL human epidermal growth factor (Gibco, Cat.PHG0311L), 20 ng/mL dexamethasone (Sigma, Cat.D4902-100 mg), 250 ng/mL human recombinant insulin (Gibco, Cat.41400045) and 100 U/mL penicillin. HBV virus at 200 genome equivalent (GE) per cell with 4% PEG8000 (Sigma, Cat.P1458) containing culture medium were added to the PHH culture medium for infection. The cells were then cultured for 24 hours in cell incubator. Then the cell culture supernatant was removed. The HBV-infected PHH were cultured with sandwich culture method with PHH culture medium containing 1% DMSO and 0.25 mg/mL matrix gel for 72 hours. The supernatant was then refreshed with PHH culture medium containing different concentrations of testing compounds for two times with 72-hour interval. At the end of treatment, the supernatant was collected for viral markers measurements, including HBsAg, HBeAg, HBV DNA and cytotoxicity. HBsAg and HBeAg were detected using alphalisa method using their specific antibodies. For HBV DNA detection, HBV DNA Quantitative Fluorescence Diagnostic Kit (Sansure Biotech Inc.) was used following the manufacture's protocol. Cytotoxicity was determined using Cell Counting Kit-8 (CCK8, Dojindo Molecular Technologies, Inc.).

Another series concerns HBsAg. Put plainly: PHH natural infection assay, HBsAg (alphalisa). The format is cell-based, HBV. The conditions noted are these: Hepatitis B virus, read-out: HBsAg IC50. The protocol:
as §1
(§2) The compounds of the present invention were tested for their capacity to inhibit HBsAg and HBeAg as described herein.

Another series has as its system HBeAg. Put plainly: PHH natural infection assay, HBeAg (alphalisa). The format is cell-based, HBV. The conditions noted are these: Hepatitis B virus, read-out: HBeAg IC50. The method, then:
as §1, §2

`CC1(C(=O)Nc2ccc(-c3nc4cccc(F)c4o3)cc2)CCOC1` (stereo not drawn) [Example 21, N-[4-(7-fluoro-1,3-benzoxazol-2-yl)phenyl]-3-methyl-tetrahydrofuran-3-carboxamide] had a CC50 at 144 h in series [1] of more than 100000 nM. The IC50 in the series on HBsAg was determined as 720 nM; in the series on HBeAg it was 850 nM.
In series [1], `COc1ccc2nc(-c3ccc(NC(=O)C4CCOC4)cc3)oc2n1` (stereo not drawn) [Example 72, N-[4-(5-methoxyoxazolo[5,4-b]pyridin-2-yl)phenyl]tetrahydrofuran-3-carboxamide] displayed a half-maximal cytotoxic concentration (CC50) at 144 h of more than 100000 nM. For the same compound, the half-inhibitory concentration (IC50) in the series on HBsAg came out at 2220 nM; in the series with HBeAg, 2610 nM.
`O=C(Nc1ccc(-c2nc3cccc(F)c3o2)cc1)C1CC1` [Example 20, N-[4-(7-fluoro-1,3-benzoxazol-2-yl)phenyl]cyclopropanecarboxamide] came in with a CC50 at 144 h in series [1] of more than 100000 nM. Moreover, the half-maximal inhibitory concentration (IC50) turned out to be 700 nM in the series with HBsAg and 690 nM with HBeAg.
In series [1], `CC1(C(=O)Nc2ccc(-c3nc4cccc(F)c4o3)cc2)COC1` [Example 12, N-[4-(7-fluoro-1,3-benzoxazol-2-yl)phenyl]-3-methyl-oxetane-3-carboxamide] came in with a 50% cytotoxic concentration (CC50) at 144 h of more than 100000 nM. Moreover, the half-maximal inhibitory concentration (IC50) in the series with HBsAg came out at 480 nM; in the series on HBeAg, 630 nM.
In the case of `O=C(Nc1ccc(-c2nc3cccc(F)c3o2)cc1)C12CC(F)(C1)C2` [Example 16, 3-fluoro-N-[4-(7-fluoro-1,3-benzoxazol-2-yl)phenyl]bicyclo[1.1.1]pentane-1-carboxamide], the CC50 at 144 h in series [1] was more than 100000 nM. Further, the half-inhibitory concentration (IC50) in the series with HBsAg was found to be 480 nM; in the series on HBeAg it was 440 nM.
Regarding `CC(=O)OC1(C(=O)Nc2ccc(-c3nc4cccc(F)c4o3)cc2)CC1` [Example 36, [1-[[4-(7-fluoro-1,3-benzoxazol-2-yl)phenyl]carbamoyl]cyclopropyl] acetate], the 50% cytotoxic concentration (CC50) at 144 h in series [1] was more than 100000 nM. The 50% inhibitory concentration (IC50) in the series on HBsAg is 2740 nM; with HBeAg, 2610 nM.
For `CC(C)(O)C(=O)Nc1ccc(-c2nc3c(F)cccc3o2)cc1` [Example 49, N-[4-(4-fluoro-1,3-benzoxazol-2-yl)phenyl]-2-hydroxy-2-methyl-propanamide], in that order: more than 100000 nM, 620 nM and 530 nM.
In series [1], `COC(C)C(=O)Nc1ccc(-c2nc3cccnc3o2)cc1` (stereo not drawn) [Example 62, 2-methoxy-N-(4-oxazolo[5,4-b]pyridin-2-ylphenyl)propanamide] showed a CC50 at 144 h of more than 100000 nM. In addition, the IC50 in the series on HBsAg came to 1610 nM; in the series with HBeAg it was 3290 nM.
`O=C(Nc1ccc(-c2nc3c(F)cccc3o2)cc1)c1nccs1` [Example 44, N-[4-(4-fluoro-1,3-benzoxazol-2-yl)phenyl]thiazole-2-carboxamide] returned a cytotoxic concentration (CC50) at 144 h in series [1] of more than 100000 nM. Also, the half-inhibitory concentration (IC50) in the series with HBsAg stood at 1330 nM; with HBeAg, 1280 nM.
For `O=C(Nc1ccc(-c2nc3cccc(F)c3o2)cc1)C1CCC1` [Example 25, N-[4-(7-fluoro-1,3-benzoxazol-2-yl)phenyl]cyclobutanecarboxamide], in that order: more than 100000 nM, 950 nM and 720 nM.
As for `CC1(C(=O)Nc2ccc(-c3nc4cccc(F)c4o3)cc2)CCCO1` (stereo not drawn) [Example 35, N-[4-(7-fluoro-1,3-benzoxazol-2-yl)phenyl]-2-methyl-tetrahydrofuran-2-carboxamide], the 50% cytotoxic concentration (CC50) at 144 h in series [1] was more than 100000 nM. Besides, the IC50 with HBsAg amounted to 1670 nM; in the series with HBeAg, 1850 nM.
The compound `O=C(Nc1ccc(-c2nc3ccc(F)c(F)c3o2)cc1)C1CCS(=O)(=O)C1` (stereo not drawn) [Example 83, N-[4-(6,7-difluoro-1,3-benzoxazol-2-yl)phenyl]-1,1-dioxo-thiolane-3-carboxamide] came in with a CC50 at 144 h in series [1] of more than 100000 nM. Also, the results for the IC50 with HBsAg and in the series with HBeAg were 1790 nM and 2540 nM, respectively.
For the compound `O=C(Nc1ccc(-c2nc3cccc(F)c3o2)cc1)C1CS(=O)(=O)C1` [Example 31, N-[4-(7-fluoro-1,3-benzoxazol-2-yl)phenyl]-1,1-dioxo-thietane-3-carboxamide], the CC50 at 144 h in series [1] was more than 100000 nM. Besides, the IC50 with HBsAg was found to be 1500 nM; with HBeAg it was 2290 nM.
For `CC(O)C(=O)Nc1ccc(-c2nc3cc(Cl)ccc3o2)cc1` (stereo not drawn) [Example 77, N-[4-(5-chloro-1,3-benzoxazol-2-yl)phenyl]-2-hydroxy-propanamide], in that order: more than 100000 nM, 2850 nM and 2540 nM.
Compound `CCC1(C(=O)Nc2ccc(-c3nc4cccc(F)c4o3)cc2)COC1` [Example 39, 3-ethyl-N-[4-(7-fluoro-1,3-benzoxazol-2-yl)phenyl]oxetane-3-carboxamide] gave a CC50 at 144 h in series [1] of more than 100000 nM. The 50% inhibitory concentration (IC50) with HBsAg came out at 6290 nM; with HBeAg it was 9010 nM.
As for `CC(C)OC(=O)Nc1ccc(-c2nc3c(F)cccc3o2)cc1` [Example 60, isopropyl N-[4-(4-fluoro-1,3-benzoxazol-2-yl)phenyl]carbamate], in series [1], the CC50 at 144 h was more than 100000 nM. The IC50 was 5040 nM with HBsAg and 3000 nM in the series on HBeAg.
On to `O=C(Nc1ccc(-c2nc3cccc(F)c3o2)cc1)C1COCCO1` (stereo not drawn) [Example 23, N-[4-(7-fluoro-1,3-benzoxazol-2-yl)phenyl]-1,4-dioxane-2-carboxamide], for which the CC50 at 144 h in series [1] is more than 100000 nM. Also, the results for the IC50 in the series on HBsAg and in the series on HBeAg were 650 nM and 520 nM, respectively.
Regarding `O=C(Nc1ccc(-c2nc3cc(F)ccc3o2)cc1)C1CCSCC1` [Example 7, N-[4-(5-fluoro-1,3-benzoxazol-2-yl)phenyl]tetrahydrothiopyran-4-carboxamide], the CC50 at 144 h in series [1] was more than 100000 nM. Further, the 50% inhibitory concentration (IC50) with HBsAg is 3860 nM; in the series on HBeAg, 5180 nM.
`O=C(Nc1ccc(-c2nc3c(F)cccc3o2)cc1)C12CC(F)(C1)C2` [Example 48, 3-fluoro-N-[4-(4-fluoro-1,3-benzoxazol-2-yl)phenyl]bicyclo[1.1.1]pentane-1-carboxamide] came in with a half-maximal cytotoxic concentration (CC50) at 144 h in series [1] of more than 100000 nM. The results for the half-maximal inhibitory concentration (IC50) in the series with HBsAg and with HBeAg were 760 nM and 970 nM, respectively.
For the compound `O=C(Nc1ccc(-c2nc3cc(Cl)ccc3o2)cc1)[C@@H]1CCOC1` (single isomer, unassigned) [Example 87-a], in series [1], the CC50 at 144 h was more than 100000 nM. The figures for the half-maximal inhibitory concentration (IC50) in the series on HBsAg and in the series on HBeAg were 4090 nM and 4050 nM, respectively.
For `O=C(Nc1ccc(-c2nc3cccc(F)c3o2)cc1)C1C2COCC21` (stereo not drawn) [Example 33, N-[4-(7-fluoro-1,3-benzoxazol-2-yl)phenyl]-3-oxabicyclo[3.1.0]hexane-6-carboxamide], in that order: more than 100000 nM, 1580 nM and 1090 nM.
In series [1], `O=C(Nc1ccc(-c2nc3c(F)cccc3o2)cc1)c1ncco1` [Example 40, N-[4-(4-fluoro-1,3-benzoxazol-2-yl)phenyl]oxazole-2-carboxamide] yielded a CC50 at 144 h of more than 100000 nM. Further, the IC50 in the series on HBsAg worked out at 170 nM; with HBeAg, 330 nM.
`CC1(C(=O)Nc2ccc(-c3nc4ccc(F)cc4o3)cc2)CCCO1` (stereo not drawn) [Example 5, N-[4-(6-fluoro-1,3-benzoxazol-2-yl)phenyl]-2-methyl-tetrahydrofuran-2-carboxamide] came in with a CC50 at 144 h in series [1] of more than 100000 nM. Besides, the 50% inhibitory concentration (IC50) worked out at 1450 nM in the series with HBsAg and 1460 nM in the series on HBeAg.
Turning to `Cc1cnc(C(=O)Nc2ccc(-c3nc4c(F)cccc4o3)cc2)o1` [Example 41, N-[4-(4-fluoro-1,3-benzoxazol-2-yl)phenyl]-5-methyl-oxazole-2-carboxamide], the 50% cytotoxic concentration (CC50) at 144 h in series [1] is more than 100000 nM. The 50% inhibitory concentration (IC50) in the series on HBsAg came to 420 nM; in the series with HBeAg, 520 nM.
As for `CC(C)(C)C(=O)Nc1ccc(-c2nc3cccc(F)c3o2)cc1` [Example 19, N-[4-(7-fluoro-1,3-benzoxazol-2-yl)phenyl]-2,2-dimethyl-propanamide], in series [1], the CC50 at 144 h was more than 100000 nM. Further, the IC50 in the series with HBsAg worked out at 680 nM; with HBeAg, 980 nM.
As for `CC1(C(=O)Nc2ccc(-c3nc4cccnc4o3)cc2)CCOC1` (stereo not drawn) [Example 64, 3-methyl-N-(4-oxazolo[5,4-b]pyridin-2-ylphenyl)tetrahydrofuran-3-carboxamide], the cytotoxic concentration (CC50) at 144 h in series [1] was more than 100000 nM. Further, the IC50 stood at 2760 nM with HBsAg and 3560 nM with HBeAg.
With `CC1(C(=O)Nc2ccc(-c3nc4cccc(F)c4o3)cc2)CC1` [Example 32, N-[4-(7-fluoro-1,3-benzoxazol-2-yl)phenyl]-1-methyl-cyclopropanecarboxamide], the 50% cytotoxic concentration (CC50) at 144 h in series [1] was more than 100000 nM. The values for the 50% inhibitory concentration (IC50) in the series with HBsAg and with HBeAg were 1520 nM and 1160 nM, respectively.
